{"source": "patent US20250041332A1", "about": "“SYSTEMIC INJECTION OF SUPERHEATED PERFLUOROCARBON EMULSION TO IMPROVE VENTILATION AND REDUCE VENTILATOR-INDUCED LUNG INJURY” (THE BOARD OF REGENTS OF THE UNIVERSITY OF TEXAS SYSTEM, priority 2021, published 2025)", "origin": "cited, not measured here", "key": {"[1]": {"settings": "intravenous"}}, "note": "Like-named read-outs stand apart in the source and are kept apart here.", "data": [{"smiles": "FC(F)(F)C(F)(F)C(F)(F)C(F)(F)C(F)(F)C(F)(F)C(F)(F)C(F)(F)Br", "note": "[PFOB, perfluorooctyl bromide]", "values": [{"measurement": "Time in which half the dose is recovered from the exhaled gas", "setting": "[1]", "result": "3 to 12", "unit": "days"}]}, {"smiles": "FC(F)(F)C(F)(F)C(F)(F)C(F)(F)F", "note": "[perfluorobutane]", "values": [{"measurement": "Vapor pressure", "setting": "at 25° C.", "result": "about 330.3 kPa"}, {"measurement": "Vapor pressure", "setting": "temperature not given", "result": "approximately 330 kPa"}]}, {"smiles": "FC(F)(F)C(F)(F)C(F)(F)C(F)(F)C(F)(F)F", "note": "[perfluoropentane]", "values": [{"measurement": "Vapor pressure", "setting": "at 25° C.", "result": "about 83.99 kPa"}]}, {"smiles": "FC(F)(F)C(F)(F)C(F)(F)F", "note": "[perfluoropropane]", "values": [{"measurement": "Vapor pressure", "setting": "at 21.1° C.", "result": "about 792 kPa"}]}]}
